Test results from patent EP4745137A1 (Gluetacs Therapeutics (Shanghai) Co., Ltd., priority 2023, dated 2025).

Assays:
[1] = molecular target: T1, human Cereblon WT GST-tagged protein (Homo sapiens, UniProt Q96SW2); test: CRBN-binding affinity by HTRF (CEREBLON BINDING kit); conditions: HTRF inhibitory activity, CEREBLON BINDING kit; read-out: HTRF IC50
T1 construct: purchased CISBIO 64BDCRBNPEH

Vcap = test: Tumor cell proliferation inhibition (CellTiter-Meiluncell Luminescent Cell Viability Assay), Vcap; conditions: Homo sapiens, 96 h, read-out: inhibitory activity (IC50, nM) against tumor cells proliferation, Vcap
IKZF3 = molecular target: T2, IKZF3 (Homo sapiens, UniProt Q96SW2+Q9UKT9); test: Western-blot assay of substrate protein degradation in hPBMCs, IKZF3; type: cell-based; conditions: 24 hours of compound treatment, compounds tested at 50 nM and 500 nM (concentration of the table not stated)
T2 construct: endogenous in cells; host or cells: hPBMCs (Milecell Biotechnologies)
T2 sequence (Q9UKT9 whole entry): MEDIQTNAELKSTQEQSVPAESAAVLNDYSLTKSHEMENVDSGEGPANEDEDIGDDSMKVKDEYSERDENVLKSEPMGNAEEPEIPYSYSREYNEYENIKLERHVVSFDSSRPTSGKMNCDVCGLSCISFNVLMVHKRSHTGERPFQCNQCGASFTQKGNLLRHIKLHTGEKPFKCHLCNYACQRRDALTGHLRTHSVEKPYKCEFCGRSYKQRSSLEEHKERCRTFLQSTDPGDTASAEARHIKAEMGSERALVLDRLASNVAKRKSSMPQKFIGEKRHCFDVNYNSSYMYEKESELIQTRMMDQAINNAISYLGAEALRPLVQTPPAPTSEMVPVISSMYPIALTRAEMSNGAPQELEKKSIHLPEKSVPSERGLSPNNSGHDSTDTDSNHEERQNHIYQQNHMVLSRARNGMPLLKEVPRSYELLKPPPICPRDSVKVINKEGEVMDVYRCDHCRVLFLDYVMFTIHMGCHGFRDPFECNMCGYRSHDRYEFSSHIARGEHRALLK
T2 sequence (Q96SW2 whole entry): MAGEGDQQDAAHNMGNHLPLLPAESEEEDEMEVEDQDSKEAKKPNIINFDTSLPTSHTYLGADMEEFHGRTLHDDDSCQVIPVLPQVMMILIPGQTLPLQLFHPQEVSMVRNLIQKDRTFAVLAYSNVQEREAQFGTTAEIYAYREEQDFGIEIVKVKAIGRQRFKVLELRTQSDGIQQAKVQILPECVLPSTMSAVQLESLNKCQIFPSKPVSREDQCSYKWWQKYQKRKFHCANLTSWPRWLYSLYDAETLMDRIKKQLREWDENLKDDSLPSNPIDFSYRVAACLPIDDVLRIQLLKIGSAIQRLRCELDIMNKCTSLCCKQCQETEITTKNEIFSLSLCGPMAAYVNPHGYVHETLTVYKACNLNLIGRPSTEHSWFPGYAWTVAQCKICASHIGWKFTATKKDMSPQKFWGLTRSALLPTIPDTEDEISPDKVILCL
T2 sequence (Q16531 whole entry partner): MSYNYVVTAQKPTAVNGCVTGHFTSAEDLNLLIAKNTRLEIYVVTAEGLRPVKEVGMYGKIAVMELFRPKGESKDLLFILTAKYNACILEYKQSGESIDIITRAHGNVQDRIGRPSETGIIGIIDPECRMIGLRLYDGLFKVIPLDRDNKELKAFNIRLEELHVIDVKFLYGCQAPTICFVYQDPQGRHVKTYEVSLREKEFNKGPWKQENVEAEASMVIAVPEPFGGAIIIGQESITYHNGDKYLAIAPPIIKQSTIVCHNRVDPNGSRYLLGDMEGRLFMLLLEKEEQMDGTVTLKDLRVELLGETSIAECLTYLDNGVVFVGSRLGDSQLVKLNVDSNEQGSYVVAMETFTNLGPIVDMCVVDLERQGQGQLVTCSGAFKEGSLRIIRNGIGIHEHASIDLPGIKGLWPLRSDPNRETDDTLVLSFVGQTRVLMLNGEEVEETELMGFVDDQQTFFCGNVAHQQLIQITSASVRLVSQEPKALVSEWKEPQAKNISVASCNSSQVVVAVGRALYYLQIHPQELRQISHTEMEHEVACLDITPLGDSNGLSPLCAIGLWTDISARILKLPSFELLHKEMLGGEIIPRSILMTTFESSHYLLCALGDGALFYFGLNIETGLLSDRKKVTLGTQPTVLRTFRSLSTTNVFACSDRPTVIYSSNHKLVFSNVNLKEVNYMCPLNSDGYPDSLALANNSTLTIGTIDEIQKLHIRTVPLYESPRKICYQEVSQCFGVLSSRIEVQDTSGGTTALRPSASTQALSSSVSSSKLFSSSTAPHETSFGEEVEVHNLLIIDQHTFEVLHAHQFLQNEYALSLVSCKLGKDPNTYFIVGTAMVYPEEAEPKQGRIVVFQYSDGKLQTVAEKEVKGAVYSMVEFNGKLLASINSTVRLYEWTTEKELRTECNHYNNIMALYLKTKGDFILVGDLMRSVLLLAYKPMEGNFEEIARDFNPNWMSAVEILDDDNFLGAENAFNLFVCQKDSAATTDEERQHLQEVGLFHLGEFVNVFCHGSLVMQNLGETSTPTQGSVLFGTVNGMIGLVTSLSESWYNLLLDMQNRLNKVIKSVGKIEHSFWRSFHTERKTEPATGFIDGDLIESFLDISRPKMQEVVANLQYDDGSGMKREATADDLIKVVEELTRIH

Jurkat = test: Tumor cell proliferation inhibition (CellTiter-Meiluncell Luminescent Cell Viability Assay), Jurkat; conditions: Homo sapiens, 96 h, read-out: inhibitory activity (IC50, nM) against tumor cells proliferation, Jurkat
MGC803 = test: Tumor cell proliferation inhibition (CellTiter-Meiluncell Luminescent Cell Viability Assay), MGC803; conditions: Homo sapiens, MGC-803, 96 h, read-out: inhibitory activity (IC50, nM) against tumor cells proliferation, MGC803
CCRF-CEM = test: Tumor cell proliferation inhibition (CellTiter-Meiluncell Luminescent Cell Viability Assay), CCRF-CEM; conditions: Homo sapiens, 96 h, read-out: inhibitory activity (IC50, nM) against tumor cells proliferation, CCRF-CEM
[2] = system: Human breast cancer cells (MDA-MB-231); test: Tumor cell proliferation inhibition (CellTiter-Meiluncell Luminescent Cell Viability Assay), MDA-MB-231; conditions: MDA-MB-231, 96 h, read-out: inhibitory activity (IC50, nM) against tumor cells proliferation, MDA-MB-231
CAL-62 = test: Tumor cell proliferation inhibition (CellTiter-Meiluncell Luminescent Cell Viability Assay), CAL-62; conditions: Homo sapiens, CAL-62, 96 h, read-out: inhibitory activity (IC50, nM) against tumor cells proliferation, CAL-62
Procedure: The tumor cells used herein were cultured in a cell culture medium listed in table 2 at 37°C in an incubator with 5% CO2. Prior to experimentation, all cell lines used were correctly identified by STR profiling, and tested negative for mycoplasma contamination using a mycoplasma detection kit through routine screenings.
On the following day, the test compounds of the present disclosure were subjected to serial dilution. […] Subsequently, 0.5 µL of the test compound dilution was transferred into the 96-well plate containing the cells, with each well containing 100 µL of cell culture medium. […] Into the 96-well plate, the diluted test compounds and corresponding detection reagents were added, resulting in final test compound concentrations of 500 nM and 10 nM, respectively. The experimental procedure is described below using the diluted 2 µM test compound as an example.
After the cells were treated with the compounds of the present disclosure for a specified period (the treatment durations were shown in Table 3), the cell viability assay reagent was added to the culture medium according to the kit's instructions to determine cell viability. […] All controls were treated using the same procedure as the compounds of the present disclosure. The growth inhibition curves for the compounds of the present disclosure were plotted using Prism GraphPad software, and the IC50 values were calculated therefrom.

IKZF2 = molecular target: T3, IKZF2 (Homo sapiens, UniProt Q96SW2+Q9UKS7); test: Western-blot assay of substrate protein degradation in hPBMCs, IKZF2; type: cell-based; conditions: 24 hours of compound treatment, compounds tested at 50 nM and 500 nM (concentration of the table not stated)
T3 construct: endogenous in cells; host or cells: hPBMCs (Milecell Biotechnologies)
T3 sequence (Q9UKS7 whole entry): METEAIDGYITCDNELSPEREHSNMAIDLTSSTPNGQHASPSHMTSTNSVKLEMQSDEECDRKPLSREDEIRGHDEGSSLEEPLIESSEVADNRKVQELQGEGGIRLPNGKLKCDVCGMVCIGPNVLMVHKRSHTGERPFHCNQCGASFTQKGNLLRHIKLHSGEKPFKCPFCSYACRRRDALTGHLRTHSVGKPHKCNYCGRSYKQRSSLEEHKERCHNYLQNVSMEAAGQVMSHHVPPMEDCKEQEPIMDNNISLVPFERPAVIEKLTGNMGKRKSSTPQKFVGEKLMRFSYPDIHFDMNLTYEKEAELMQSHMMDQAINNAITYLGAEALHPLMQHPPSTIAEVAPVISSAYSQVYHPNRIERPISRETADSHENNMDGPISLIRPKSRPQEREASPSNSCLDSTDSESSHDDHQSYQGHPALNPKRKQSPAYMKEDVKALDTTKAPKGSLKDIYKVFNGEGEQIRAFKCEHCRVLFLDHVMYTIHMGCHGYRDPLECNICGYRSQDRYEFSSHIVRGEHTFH
T3 sequence (Q96SW2 whole entry): as the sequence (Q96SW2 whole entry) above
T3 sequence (Q16531 whole entry partner): as the sequence (Q16531 whole entry partner) above

IKZF1 = molecular target: T4, IKZF1 (Homo sapiens, UniProt Q13422+Q96SW2); test: Western-blot assay of substrate protein degradation in hPBMCs, IKZF1; type: cell-based; conditions: 24 hours of compound treatment, compounds tested at 50 nM and 500 nM (concentration of the table not stated)
T4 construct: endogenous in cells; host or cells: hPBMCs (Milecell Biotechnologies)
T4 sequence (Q13422 whole entry): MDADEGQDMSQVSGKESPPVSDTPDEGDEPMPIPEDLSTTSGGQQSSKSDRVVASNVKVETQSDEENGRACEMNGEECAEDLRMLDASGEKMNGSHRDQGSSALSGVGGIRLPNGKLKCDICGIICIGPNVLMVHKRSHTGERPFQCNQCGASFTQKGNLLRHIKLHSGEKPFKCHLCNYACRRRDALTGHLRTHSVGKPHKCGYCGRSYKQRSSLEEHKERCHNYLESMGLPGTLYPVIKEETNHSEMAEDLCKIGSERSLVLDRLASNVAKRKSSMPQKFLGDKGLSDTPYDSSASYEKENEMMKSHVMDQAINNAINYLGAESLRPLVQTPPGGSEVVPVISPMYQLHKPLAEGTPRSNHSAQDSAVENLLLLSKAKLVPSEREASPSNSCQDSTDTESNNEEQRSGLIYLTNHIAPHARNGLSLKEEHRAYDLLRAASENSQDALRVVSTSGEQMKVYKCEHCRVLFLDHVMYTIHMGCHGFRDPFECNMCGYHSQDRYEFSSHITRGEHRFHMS
T4 sequence (Q96SW2 whole entry): as the sequence (Q96SW2 whole entry) above
T4 sequence (Q16531 whole entry partner): as the sequence (Q16531 whole entry partner) above

[3] = system: Human acute T lymphocytic leukemia cells (Molt-4); test: Tumor cell proliferation inhibition (CellTiter-Meiluncell Luminescent Cell Viability Assay), Molt-4; conditions: MOLT-4, 96 h, read-out: inhibitory activity (IC50, nM) against tumor cells proliferation, Molt 4
WEE1 = molecular target: T5, WEE1 (Homo sapiens, UniProt P30291+Q96SW2); test: Western-blot assay of substrate protein degradation in hPBMCs, WEE1; type: cell-based; conditions: 24 hours of compound treatment, compounds tested at 50 nM and 500 nM (concentration of the table not stated)
T5 construct: endogenous in cells; host or cells: hPBMCs (Milecell Biotechnologies)

GSPT1 = molecular target: T6, GSPT1 (Homo sapiens, UniProt P15170+Q96SW2); test: Western-blot assay of substrate protein degradation in hPBMCs, GSPT1; type: cell-based; conditions: 24 hours of compound treatment, compounds tested at 50 nM and 500 nM (concentration of the table not stated)
T6 construct: endogenous in cells; host or cells: hPBMCs (Milecell Biotechnologies)
T6 sequence (P15170 whole entry): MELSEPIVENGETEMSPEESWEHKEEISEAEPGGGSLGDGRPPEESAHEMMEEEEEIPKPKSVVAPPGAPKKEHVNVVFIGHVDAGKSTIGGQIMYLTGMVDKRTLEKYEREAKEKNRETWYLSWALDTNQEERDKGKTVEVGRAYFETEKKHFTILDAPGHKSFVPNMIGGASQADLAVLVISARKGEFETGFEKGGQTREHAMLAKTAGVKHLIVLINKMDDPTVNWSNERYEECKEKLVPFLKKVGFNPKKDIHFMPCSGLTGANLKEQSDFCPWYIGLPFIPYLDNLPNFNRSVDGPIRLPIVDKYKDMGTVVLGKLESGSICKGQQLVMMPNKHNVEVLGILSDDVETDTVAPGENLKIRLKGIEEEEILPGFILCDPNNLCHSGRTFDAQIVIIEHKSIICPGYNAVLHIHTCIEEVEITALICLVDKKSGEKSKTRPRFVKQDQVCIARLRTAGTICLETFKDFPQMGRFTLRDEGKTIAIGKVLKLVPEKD
T6 sequence (Q96SW2 whole entry): as the sequence (Q96SW2 whole entry) above
T6 sequence (Q16531 whole entry partner): as the sequence (Q16531 whole entry partner) above

MM.1R = test: Tumor cell proliferation inhibition (CellTiter-Meiluncell Luminescent Cell Viability Assay), MM.1R; conditions: Homo sapiens, 96 h, read-out: inhibitory activity (IC50, nM) against tumor cells proliferation, MM.1R
SR = test: Tumor cell proliferation inhibition (CellTiter-Meiluncell Luminescent Cell Viability Assay), SR; conditions: Homo sapiens, 96 h, read-out: inhibitory activity (IC50, nM) against tumor cells proliferation, SR
SW620 = test: Tumor cell proliferation inhibition (CellTiter-Meiluncell Luminescent Cell Viability Assay), SW620; conditions: Homo sapiens, SW-620, 96 h, read-out: inhibitory activity (IC50, nM) against tumor cells proliferation, SW620
CK1α = molecular target: T7, CK1α (Homo sapiens, UniProt P48729+Q96SW2); test: Western-blot assay of substrate protein degradation in hPBMCs, CK1α; type: cell-based; conditions: 24 hours of compound treatment, compounds tested at 50 nM and 500 nM (concentration of the table not stated)
T7 construct: endogenous in cells; host or cells: hPBMCs (Milecell Biotechnologies)
T7 sequence (P48729 whole entry): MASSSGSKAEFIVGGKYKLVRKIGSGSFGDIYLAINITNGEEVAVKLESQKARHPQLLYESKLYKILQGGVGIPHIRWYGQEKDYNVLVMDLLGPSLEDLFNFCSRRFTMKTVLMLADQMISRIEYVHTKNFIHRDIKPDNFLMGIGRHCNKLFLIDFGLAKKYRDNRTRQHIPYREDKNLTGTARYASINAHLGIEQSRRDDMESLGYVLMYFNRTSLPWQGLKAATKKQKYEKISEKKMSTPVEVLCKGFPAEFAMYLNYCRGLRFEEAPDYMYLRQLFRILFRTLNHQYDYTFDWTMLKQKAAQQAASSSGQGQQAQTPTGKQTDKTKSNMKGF
T7 sequence (Q96SW2 whole entry): as the sequence (Q96SW2 whole entry) above
T7 sequence (Q16531 whole entry partner): as the sequence (Q16531 whole entry partner) above

NCI-H1975 = test: Tumor cell proliferation inhibition (CellTiter-Meiluncell Luminescent Cell Viability Assay), NCI-H1975; conditions: Homo sapiens, NCI-H1975, 96 h, read-out: inhibitory activity (IC50, nM) against tumor cells proliferation, H1975

T1 sequence (Q96SW2 whole entry): as the sequence (Q96SW2 whole entry) above

Compound	IC50 [1] [nM]	IC50 (Vcap) [nM]	IKZF3 substrate protein remaining % (IKZF3)	IC50 (Jurkat) [nM]	IC50 (MGC803) [nM]	IC50 (CCRF-CEM) [nM]	IC50 [2] [nM]	IC50 (CAL-62) [nM]	IKZF2 substrate protein remaining % (IKZF2)	IKZF 1 substrate protein remaining % (IKZF1)	IC50 [3] [nM]	Weel substrate protein remaining % (WEE1)	GSPT1 substrate protein remaining % (GSPT1)	IC50 (MM.1R) [nM]	IC50 (SR) [nM]	IC50 (SW620) [nM]	CK1a substrate protein remaining % (CK1α)	IC50 (NCI-H1975) [nM]
O=C1CCC(N2Cc3cc(CN4CCN(c5ccccc5)CC4)ccc3C2=O)C(=O)N1 (stereo not drawn) [GT-04446, 3-(1-oxo-5-((4-phenylpiperazin-1-yl)methyl)isoindolin-2-yl)piperidine-2,6-dione]	500 to 1000	10 to 50	A (0% ≤ substrate protein remaining % ≤ 80%)	1 to 5	100 to 500	5 to 10	100 to 500	5 to 10	A (0% ≤ substrate protein remaining % ≤ 80%)	A (0% ≤ substrate protein remaining % ≤ 80%)	1 to 5	A (0% ≤ substrate protein remaining % ≤ 80%)	A (0% ≤ substrate protein remaining % ≤ 80%)	5 to 10	100 to 500	50 to 100	A (0% ≤ substrate protein remaining % ≤ 80%)	50 to 100
O=C1CCC(N2Cc3cc(CN4CCN(c5ccccc5Cl)CC4)ccc3C2=O)C(=O)N1 (stereo not drawn) [GT-04454, 3-(5-((4-(2-chlorophenyl)piperazin-1-yl)methyl)-1-oxoisoindolin-2-yl)piperidine-2,6-dione]	500 to 1000	10 to 50	A (0% ≤ substrate protein remaining % ≤ 80%)	5 to 10	100 to 500	10 to 50	100 to 500	10 to 50	A (0% ≤ substrate protein remaining % ≤ 80%)	A (0% ≤ substrate protein remaining % ≤ 80%)	10 to 50	A (0% ≤ substrate protein remaining % ≤ 80%)	A (0% ≤ substrate protein remaining % ≤ 80%)	10 to 50	100 to 500	100 to 500	A (0% ≤ substrate protein remaining % ≤ 80%)	100 to 500
Cc1cscc1C1=CCN(Cc2ccc3c(c2)CN(C2CCC(=O)NC2=O)C3=O)CC1 (stereo not drawn) [GT-04503, 3-(5-((4-(4-methylthiophen-3-yl)-3,6-dihydropyridin-1(2H)-yl)methyl)-1-oxoisoindolin-2-yl)piperidine-2,6-dione]	< 500	1 to 5	A (0% ≤ substrate protein remaining % ≤ 80%)	< 1	5 to 10	< 1	1 to 5	< 1	A (0% ≤ substrate protein remaining % ≤ 80%)	A (0% ≤ substrate protein remaining % ≤ 80%)	< 1	A (0% ≤ substrate protein remaining % ≤ 80%)	A (0% ≤ substrate protein remaining % ≤ 80%)	1 to 5	1 to 5	1 to 5	A (0% ≤ substrate protein remaining % ≤ 80%)	1 to 5
O=C1CCC(N2Cc3cc(CN4CCN(c5ccc(Cl)cn5)CC4)ccc3C2=O)C(=O)N1 (stereo not drawn) [GT-04431, 3-(5-((4-(5-chloropyridin-2-yl)piperazin-1-yl)methyl)-1-oxoisoindolin-2-yl)piperidine-2,6-dione]	500 to 1000	10 to 50	A (0% ≤ substrate protein remaining % ≤ 80%)	1 to 5	50 to 100	1 to 5	50 to 100	5 to 10	A (0% ≤ substrate protein remaining % ≤ 80%)	A (0% ≤ substrate protein remaining % ≤ 80%)	10 to 50	A (0% ≤ substrate protein remaining % ≤ 80%)	A (0% ≤ substrate protein remaining % ≤ 80%)	5 to 10	100 to 500	50 to 100	A (0% ≤ substrate protein remaining % ≤ 80%)	50 to 100
O=C1CCC(N2Cc3cc(CN4CCN(c5cccc(F)c5)CC4)ccc3C2=O)C(=O)N1 (stereo not drawn) [GT-04452, 3-(5-((4-(3-fluorophenyl)piperazin-1-yl)methyl)-1-oxoisoindolin-2-yl)piperidine-2,6-dione]	500 to 1000	10 to 50	B (80%< substrate protein remaining %≤ 100%)	5 to 10	100 to 500	5 to 10	100 to 500	10 to 50	B (80%< substrate protein remaining %≤ 100%)	B (80%< substrate protein remaining %≤ 100%)	5 to 10	A (0% ≤ substrate protein remaining % ≤ 80%)	A (0% ≤ substrate protein remaining % ≤ 80%)	10 to 50	100 to 500	100 to 500	A (0% ≤ substrate protein remaining % ≤ 80%)	100 to 500
O=C1CCC(N2Cc3cc(CN4CCN(c5cccc(Cl)n5)CC4)ccc3C2=O)C(=O)N1 (stereo not drawn) [GT-04497, 3-(5-((4-(6-chloropyridin-2-yl)piperazin-1-yl)methyl)-1-oxoisoindolin-2-yl)piperidine-2,6-dione]	500 to 1000	5 to 10	A (0% ≤ substrate protein remaining % ≤ 80%)	1 to 5	50 to 100	1 to 5	10 to 50	1 to 5	A (0% ≤ substrate protein remaining % ≤ 80%)	A (0% ≤ substrate protein remaining % ≤ 80%)	1 to 5	A (0% ≤ substrate protein remaining % ≤ 80%)	A (0% ≤ substrate protein remaining % ≤ 80%)	1 to 5	10 to 50	10 to 50	A (0% ≤ substrate protein remaining % ≤ 80%)	10 to 50
